Patent publication US8901118B2, “Compounds and methods for kinase modulation, and indications therefor” (Plexxikon Inc., priority 2010, dated 2014)

Tests used:
BCR-FMS BaF3 cells = assay: Splenomegaly mouse model, BCR-FMS BaF3 cells; format: in vivo
Protocol: BaF3 cells are engineered with any of BCR-FMS, BCR-TRK1 or BCR-TRK2 to assess in vivo inhibitory effects of Fms, TrkA or TrkB inhibition, respectively. BaF3 cells are maintained in growth media (RPMI containing 10% FBS, 1% PenStrep, 1% NEAA, and 1% L-Glutamine, supplemented with 5% murine IL-3 and 1 mg/mL G418). Four days prior to start, 2×10^6 cells are inoculated into a T150 vented flask using the growth media and incubated at 37° C. in 5% CO2 for three days. One day prior to start, cells are collected by centrifugation and are suspended in growth media without IL-3. On the day of cell implant, the cells are collected by centrifugation, rinsed 3×20 mL with RPMI, then are suspended in 5.4 mL of media and counted, then adjusted with additional RPMI as needed to give 5×10^7 cells/mL. On day 1, female nu/nu mice at 5-6 weeks of age are injected intravenously with BaF3 cells injected injecting 0.1 mL (5×10^6) cells in the tail vein (mice without cell injected are included as control group). Compound stocks in dimethylsulfoxide are stored at room temperature protected from light. Stocks are diluted prior to dosing, diluting 22 μL of compound stock into 858 μL of diluent (or 50 μL into 1950 μL) to provide vehicle of 1.0% Polysorbate 80, 0.5% hydroxypropyl methyl cellulose, with final dimethylsulfoxide at 2.5% in all dosing suspensions and vehicle control. Dosing suspension is prepared prior to use, mixing by inversion and sonication in a water bath to make a uniform suspension. On days 10-18, mice are treated with vehicle only or the desired level of compound in vehicle, ˜0.2 mL per 25 gm mouse, once a day by oral gavage, or in some instances, twice per day. On day 18, mice are administered a final dose and two hours later a plasma sample is taken. At four hours following the final dose, mice are sacrificed, an additional plasma sample is collected and mouse spleens are removed and weighed. The average spleen weight of vehicle control group mice is compared to the average spleen weight of the test compound mice. Percent spleen growth inhibition is calculated as 100×[(spleen weight vehicle control-spleen weight test compound)/spleen weight vehicle control]. In some instances, the compounds were not tested in all of the assays as indicated by NA in the table below.

Flt-3 kinase = molecular target: T1, Flt-3 kinase (Homo sapiens, UniProt P36888); assay: Flt-3 kinase biochemical activity assay (AlphaScreen); conditions: 100 μM ATP; read-out: Biochemical Inhibition IC50 Flt3
T1 sequence (P36888 27-993): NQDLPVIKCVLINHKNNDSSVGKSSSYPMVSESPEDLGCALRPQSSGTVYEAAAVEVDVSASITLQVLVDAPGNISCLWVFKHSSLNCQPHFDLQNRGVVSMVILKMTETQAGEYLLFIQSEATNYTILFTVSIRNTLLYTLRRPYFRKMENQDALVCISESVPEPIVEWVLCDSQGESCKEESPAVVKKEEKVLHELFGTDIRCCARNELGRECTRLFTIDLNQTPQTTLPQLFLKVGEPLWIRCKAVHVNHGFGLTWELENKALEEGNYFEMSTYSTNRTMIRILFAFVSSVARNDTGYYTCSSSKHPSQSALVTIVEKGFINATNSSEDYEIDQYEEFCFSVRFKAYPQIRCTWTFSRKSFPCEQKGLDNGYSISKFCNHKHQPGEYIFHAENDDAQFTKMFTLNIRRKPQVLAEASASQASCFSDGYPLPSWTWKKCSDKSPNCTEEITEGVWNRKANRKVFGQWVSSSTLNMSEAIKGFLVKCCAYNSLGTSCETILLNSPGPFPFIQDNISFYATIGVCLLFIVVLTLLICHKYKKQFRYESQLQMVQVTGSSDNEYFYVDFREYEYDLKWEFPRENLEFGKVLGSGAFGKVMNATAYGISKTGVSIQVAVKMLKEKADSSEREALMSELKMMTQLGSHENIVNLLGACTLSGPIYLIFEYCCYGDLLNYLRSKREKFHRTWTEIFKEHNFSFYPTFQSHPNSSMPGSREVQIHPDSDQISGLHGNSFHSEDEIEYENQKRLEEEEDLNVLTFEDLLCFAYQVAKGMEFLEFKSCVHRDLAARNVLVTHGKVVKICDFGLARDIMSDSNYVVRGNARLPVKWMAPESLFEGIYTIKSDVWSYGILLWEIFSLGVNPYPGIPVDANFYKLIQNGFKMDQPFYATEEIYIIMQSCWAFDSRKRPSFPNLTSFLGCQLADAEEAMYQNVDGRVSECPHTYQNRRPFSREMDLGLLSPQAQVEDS
Protocol: In one assay the biochemical activity IC50 values are determined with respect to inhibition of Flt-3 kinase activity, where inhibition of phosphorylation of a peptide substrate is measured as a function of compound concentration. Compounds to be tested, dissolved in DMSO (1 μL), are added to a white 384-well plate (Costar #3705). Working stocks of Flt-3 kinase (Invitrogen), biotin-(E4Y)10 substrate (Upstate Biotech, Cat#12-440), and ATP (Sigma, Cat#A-3377) are prepared in 25 mM Hepes pH 7.5, 5 mM MgCl2, 5 mM MnCl2, 1 mM DTT, and 0.01% Tween-20. All components are added to the 384-well plate for a final concentration of 1 ng/well Flt-3, 30 nM biotin-(E4Y)10 and 100 μM ATP in a volume of 20 μL. Each sample is at 5% DMSO. The plate is then incubated for 1 hour at room temperature. Just before use, working stocks of donor and acceptor beads from the AlphaScreen PY20 Detection Kit (PerkinElmer, Cat#676601M) are prepared in 25 mM Hepes pH 7.5, pH 7.4, 100 mM EDTA. 0.3% BSA. To stop the reaction, the plate is uncovered in the dark and 5 μL of Donor Beads solution (Streptavidin beads) is added to each well. The plate is incubated at room temperature for 20 minutes. Five microliters of Acceptor Beads solution (PY20 coated beads) are then added to each well. The final concentration of each bead is 10 μg/mL. The plates are incubated at room temperature for 60 minutes. Fluorescence signal is recorded on the Envision reader. Phosphorylated substrate results in binding of the PY20 antibody and association of the donor and acceptor beads such that signal correlates with kinase activity. The signal vs. compound concentration is used to determine the IC50.

[1] = dosed once per day at 10 mg per kg

## CCc1ccc(Nc2ccc(C(=O)c3c[nH]c4ncnc(NCC(F)(F)F)c34)c(F)n2)cn1 [Compound P-4120, [6-[(6-ethyl-3-pyridyl)amino]-2-fluoro-3-pyridyl]-[4-(2,2,2-trifluoroethylamino)-7H-pyrrolo[2,3-d]pyrimidin-5-yl]methanone]
BCR-FMS BaF3 cells; [1]
  % spleen growth inhibition, Fms: 37%

## Fc1ccc(Nc2ncc(Cc3c[nH]c4ncc(Cl)cc34)cn2)cc1 [Compound P-3012, [5-(5-Chloro-1H-pyrrolo[2,3-b]pyridin-3-ylmethyl)-pyrimidin-2-yl]-(4-fluoro-phenyl)-amine]
Flt-3 kinase
  IC50: < 100 nM

## COc1ccc(Nc2ccc(C(=O)c3c[nH]c4ncnc(NCC(F)(F)F)c34)c(F)n2)cn1 [Compound P-4084, [2-fluoro-6-[(6-methoxy-3-pyridyl)amino]-3-pyridyl]-[4-(2,2,2-trifluoroethylamino)-7H-pyrrolo[2,3-d]pyrimidin-5-yl]methanone]
BCR-FMS BaF3 cells; [1]
  % spleen growth inhibition, Fms: 6.2%

## Clc1ccc(Nc2ncc(Cc3c[nH]c4ncc(Cl)cc34)cn2)cc1 [Compound P-3011, (4-Chloro-phenyl)-[5-(5-chloro-1H-pyrrolo[2,3-b]pyridin-3-ylmethyl)-pyrimidin-2-yl]-amine]
Flt-3 kinase
  IC50: < 10 nM

## Cc1ccc(Nc2ccc(C(=O)c3c[nH]c4ncnc(NCC(F)(F)F)c34)c(F)n2)cn1 [Compound P-4112, [2-fluoro-6-[(6-methyl-3-pyridyl)amino]-3-pyridyl]-[4-(2,2,2-trifluoroethylamino)-7H-pyrrolo[2,3-d]pyrimidin-5-yl]methanone]
BCR-FMS BaF3 cells; [1]
  % spleen growth inhibition, Fms: 9.5%

## Clc1cnc2[nH]cc(Cc3cnc(Nc4ccccc4Cl)nc3)c2c1 [Compound P-3015, (2-Chloro-phenyl)-[5-(5-chloro-1H-pyrrolo[2,3-b]pyridin-3-ylmethyl)-pyrimidin-2-yl]-amine]
Flt-3 kinase
  IC50: < 100 nM

## CCc1ccc(Nc2ccc(C(=O)c3c[nH]c4ncnc(NC)c34)c(F)n2)cn1 [Compound P-4124, [6-[(6-ethyl-3-pyridyl)amino]-2-fluoro-3-pyridyl]-[4-(methylamino)-7H-pyrrolo[2,3-d]pyrimidin-5-yl]methanone]
BCR-FMS BaF3 cells; [1]
  % spleen growth inhibition, Fms: 20%

## O=C(c1ccc(Nc2ccc(C3CC3)nc2)nc1F)c1c[nH]c2ncnc(NCC(F)(F)F)c12 [Compound P-4090, [6-[(6-cyclopropyl-3-pyridyl)amino]-2-fluoro-3-pyridyl]-[4-(2,2,2-trifluoroethylamino)-7H-pyrrolo[2,3-d]pyrimidin-5-yl]methanone]
BCR-FMS BaF3 cells; dosed at 5 mg/kg
  % spleen growth inhibition, Fms: 38%

## Fc1nc(NC2CCC(F)(F)CC2)ccc1Cc1c[nH]c2ncc(Cl)cc12 [Compound P-3013, [5-(5-Chloro-1H-pyrrolo[2,3-b]pyridin-3-ylmethyl)-6-fluoro-pyridin-2-yl]-(4,4-difluoro-cyclohexyl)-amine]
Flt-3 kinase
  IC50: > 1000 nM
BCR-FMS BaF3 cells; [1]
  % spleen growth inhibition, Fms: 48%

## Fc1ccccc1Nc1ncc(Cc2c[nH]c3ncc(Cl)cc23)cn1 [Compound P-3014, [5-(5-Chloro-1H-pyrrolo[2,3-b]pyridin-3-ylmethyl)-pyrimidin-2-yl]-(2-fluoro-phenyl)-amine]
Flt-3 kinase
  IC50: < 1000 nM

## O=C(c1ccc(NC2CCC(F)(F)CC2)nc1F)c1c[nH]c2ncnc(NC3CC3)c12 [Compound P-4062, [4-(cyclopropylamino)-7H-pyrrolo[2,3-d]pyrimidin-5-yl]-[6-[(4,4-difluorocyclohexyl)amino]-2-fluoro-3-pyridyl]methanone]
BCR-FMS BaF3 cells; [1]
  % spleen growth inhibition, Fms: 76%

## Cc1cnc2[nH]cc(Cc3cnc(Nc4ccc(F)cc4)nc3)c2c1 [Compound P-3010, (4-Fluoro-phenyl)-[5-(5-methyl-1H-pyrrolo[2,3-b]pyridin-3-ylmethyl)-pyrimidin-2-yl]-amine]
Flt-3 kinase
  IC50: < 100 nM
BCR-FMS BaF3 cells; [1]
  % spleen growth inhibition, Fms: 47%

## CCNc1ncnc2[nH]cc(C(=O)c3ccc(Nc4ccc(CC)nc4)nc3F)c12 [Compound P-4123, [4-(ethylamino)-7H-pyrrolo[2,3-d]pyrimidin-5-yl]-[6-[(6-ethyl-3-pyridyl)amino]-2-fluoro-3-pyridyl]methanone]
BCR-FMS BaF3 cells; dosed at 5 mg/kg
  % spleen growth inhibition, Fms: 14%

## O=C(c1ccc(NC2CCC(F)(F)CC2)nc1F)c1c[nH]c2ncnc(NCC(F)(F)F)c12 [Compound P-4061, [6-[(4,4-difluorocyclohexyl)amino]-2-fluoro-3-pyridyl]-[4-(2,2,2-trifluoroethylamino)-7H-pyrrolo[2,3-d]pyrimidin-5-yl]methanone]
BCR-FMS BaF3 cells; [1]
  % spleen growth inhibition, Fms: 48%

## CNc1ncnc2[nH]cc(C(=O)c3ccc(NC4CCCCC4)nc3Cl)c12 [Compound P-4110, [2-chloro-6-(cyclohexylamino)-3-pyridyl]-[4-(methylamino)-7H-pyrrolo[2,3-d]pyrimidin-5-yl]methanone]
BCR-FMS BaF3 cells; [1]
  % spleen growth inhibition, Fms: 30%
